Assay results reported in patent US8263821B2, “Non-invasive real-time in vivo bioluminescence imaging of local CaÂ2+ dynamics in living organisms” (priority 2004, dated 2012).

Assays:
cortical neurons = assay: Single-cell Ca2+ induced bioluminescence in cortical neurons transfected with GA; type: cell-based; conditions: GA reconstituted with h coelenterazine
Protocol: Cultures were plated on to glass-bottomed dishes and mounted to a stage adapter on a fully automated inverted microscope mounted in a black-box. GFP-Aequorin was reconstituted with 2.5-5 μM coelenterazine for 30 minutes at 37° C. Incubation of cells with coelenterazine that had been transfected with SynGA was undertaken at room temperature to reduce the consumption of the photoprotein during the reconstitution process. Cells were perfused with tyrodes buffer. Prior to bath application of NMDA, cells were perfused for 1 minute without Mg^2+. All recordings were made at room temperature (22-25° C.). […]
The fluorescence/bioluminescence wide field microscopy system was custom built by ScienceWares, Inc. The system includes a fully automated inverted microscope (200M, Zeiss Germany) and is housed in a light-tight dark box. […] Low level light emission (photon rate <100 kHz), was collected using an Image Photon Detector (IPD 3, Photek Ltd.) connected to the baseport of the microscope, which assigns an X, Y coordinate and time point for each detected photon (Miller et al., 1994). The system is fully controlled by the data acquisition software, which also converts single photon events into an image that can be superimposed with brightfield or fluorescence images made by a connected CCD camera to the C-port (Coolsnap HQ, Roper Scientific). […]

[1] = tested on: Ca2+ oscillations in somatosensory cortex slices; assay: Mitochondrial Ca2+ oscillations (bioluminescence) in organotypic cortical slices from mtGA transgenic mice; type: cell-based, mouse; conditions: D-APV 50 μM; slices from P4 mtGA mice, 4-5 days in culture

## CN[C@H](CC(=O)O)C(=O)O [NMDA]
Cortical neurons; NMDA 100 μM
  Ca2+ induced bioluminescence signal after stimulation: robust signal

## [Cl-].[K+] [KCl]
Cortical neurons; KCl 90 mM
  Ca2+ induced bioluminescence signal after stimulation: robust signal

## N[C@H](CCCP(=O)(O)O)C(=O)O [D-APV]
[1]
  block of Ca2+ oscillations generated by removal of Mg2+ from the buffer: completely and reversibly blocked
